These results are taken from publication PMC7851395 (British Journal of Cancer, 2020).

One data set deals with A549 cells. The experiment in a line: MTT cytotoxicity assay, A549 cells. The format is cell-based. As to conditions: Homo sapiens; A549 cells, 48 h, MTT; read-out: IC50. The procedure:
(§1) The cytotoxicity and viability of human NSCLC cells and normal cells were determined by MTT assay. MTT assay was performed as described previously.[22] MTT assay was used to determine the cell cytotoxicity and viability in human NSCLC cells. Cells (5 × 10^3 cells/well) were plated in 96-well plates and attached overnight. After the proper treatment, the MTT solution was added at 25 µL/well and incubated at 37 °C for 4 h. The formazan crystals were dissolved in 150 µL of DMSO, and the optical density (OD) was measured using a Microplate Reader at 490 nm. The cell viability was calculated by the following formula: viability = (average OD values of treatment wells/average OD values of vehicle control wells) × 100%. And half-maximal inhibitory concentration (IC50) values were determined by GraphPad Pro Prism 7.0.

Another data set relates to H460 xenograft. The format is in vivo, BALB/c nude mice. To be noted: 2 mg/kg i.p. every other day. On the procedure: All animal procedures were done accordingly with the Institutional laboratory animal research guidelines and were approved by Wenzhou Medical University Animal Policy and Welfare Committee. Female athymic BALB/c nude mice (5–6 weeks old) and immune-defective non-obese […] diabetic severe combined immunodeficiency (NOD-SCID) mice (6–8 weeks old) were purchased from the Vital River Experimental Animal Center (Beijing, China). All the mice were housed under 12 h light–dark cycles at 25 °C and free for water and diet. For the xenograft model, the H460 cells (5 × 10^6 cells were mixed with an equal volume of PBS and Matrigel in 100 μL) were implanted on the hind flank of nude mice. Once tumour volumes reached ~50 mm^3, 24 mice were divided into four experimental groups (six mice per group, no differences in mean body weights or tumour volumes between the groups) and intraperitoneal injection with 2 mg/kg SNS-032 (a recognised CDK9 inhibitor), bufalin and acetyl-bufalin every other day. Tumour volume was measured as V = (L × W × W)/2, in which L and W represent the length and width of tumour. Animals were killed by cervical dislocation once the tumour volume reached 1000 mm^3. The tumours, hearts, livers, kidneys and lungs were removed for use in the histology and western blot analysis.

The next data set has as its system H460 cells. The experiment in a line: MTT cytotoxicity assay, H460 cells. The format is cell-based. To be noted: Homo sapiens, NCI-H460; H460 cells, 48 h, MTT; read-out: IC50. The procedure:
as §1
On the technique in general: Formazan colour is commonly taken as a measure of viable cells.

In data set [1] the test system is normal lung cells BEAS-2B. The experiment in a line: MTT cytotoxicity assay, normal lung cells BEAS-2B. The format is cell-based, human. The procedure: as §1
For the next data set, the system named is human NSCLC cells. Description: Colony-formation assay. Format: cell-based. To be noted: 50, 100, 200 nM for 24 h, colonies after 7 days. The procedure:
The human NSCLC cells and normal cells were seeded at 1000 cells/well on six-well plates, placed in 5% CO2 atmosphere and cultured overnight at 37 °C. DMSO (Control) and acetyl-bufalin (50, 100, 200 nM) were added to the cells for 24 h. The fresh medium was replaced every 2 days to maintain the growth of cells for 7 days. Colonies were washed with phosphate-buffered saline (PBS), fixed with 4% paraformaldehyde at room temperature for 15 min, washed with purified water for three times and stained with Crystal violet for 10 min. Each experiment was in triplicate, and three independent experiments were carried out.

In data set [2] the test system is patient-derived human NSCLC xenografts. Description: Patient-derived NSCLC xenograft (PDX) model. The format is in vivo, mice. As to conditions: for average tumour volume: 14 days, vehicle 931.90 mm^3. The procedure: For the patient-derived human NSCLC xenografts (PDXs) animal model, four pairs of lung cancer samples were obtained from patients who had undergone surgical treatment of lung cancer in the First Affiliated Hospital of Wenzhou Medical University. Fresh tumour tissue was sterilely incised into ~3-mm^3 pieces and subcutaneously injected into immunodeficient NOD/SCID mice within 30 min. The remaining tumour tissues were stored at −80 °C. When the tumours have successfully engrafted, tumour samples were removed and passaged into the third generation of nude mice for the following studies. All 18 mice were allocated into three groups (n = 6) and received i.p. injection of acetyl-bufalin (1 mg/kg/2 days and 2 mg/kg/2 days) as compared with mice injected with PBS (vehicle group) every other day. Tumour volume was measured as V = (L × W × W)/2, in which L and W represent the length and width of tumour. After 14 days, all the mice were killed by cervical dislocation. The tumours, hearts, livers, kidneys and lungs were removed for use in the histology and western blot analysis.

For the next data set, the system named is caspase-3. Description: Caspase-3 activity assay. Format: cell-based. To be noted: human NSCLC cells (H460, PC-9), 24 h. The procedure:
The caspase-3 assay was performed as described previously.[23] According to the manufacturer’s protocol, the activity of caspase‐3 was evaluated by using a caspase‐3 colorimetric assay kit (Abcam, Cambridge, UK). H460 and PC-9 cells were collected and resuspended in lysis buffer. After incubation on ice for 10 min, the cell lysate was centrifuged at 12,000 rpm for 10 min at 4 °C, and the protein concentration in the supernatants was measured using the Bradford dye method. The supernatants were incubated with a reaction buffer containing 200 µM devd-p-nitroanilide, for caspase‐3 in a caspase assay buffer at 37 °C with 10 mM dithiothreitol for 2 h. The activity of caspase-3 was determined by measuring the absorbance at 405 nm. Each experiment was done in triplicate for three independent experiments.

The IC50 is the point on the concentration scale where inhibition reaches its midpoint.

For the compound `CC(=O)OC1CCC2(C)C(CCC3C2CCC2(C)C(c4ccc(=O)oc4)CCC32O)C1` (stereo not drawn) [acetyl-bufalin], the IC50 came to 28.1 nM in the data set with A549 cells and 27.8 nM with H460 cells. For the same compound, the “gross toxicities on hearts, livers, kidneys or lungs” value with H460 xenograft (H&E staining) is reported as “no gross toxicities”. For the same compound, the “tumour growth (weight and volume)” value with H460 xenograft (compared with vehicle) is “significantly inhibited tumour growth”. Further, the “comparison of inhibitory effect between treatments” value in the data set on H460 xenograft (versus SNS-032 and bufalin) is reported as “best inhibitory effect”. Further, in data set [1], the “cytotoxic effect on normal cells” value was “low toxicity”. For the same compound, the “NSCLC cell cloning ability” value in the data set with human NSCLC cells was “inhibited dose-dependently”. In addition, the values for the average tumour volume in data set [2] (1 mg/kg per 2 days i.p.) and in data set [2] (2 mg/kg per 2 days i.p.) were 544.43 mm^3 and 256.29 mm^3, respectively. Further, in data set [2] (1 and 2 mg/kg per 2 days i.p.), the “body weight of the mice” value is “stable”. In addition, the “gross toxicities on heart, liver, kidney and lung” value in data set [2] (H&E staining, compared with vehicle) is “no gross toxicities”. For the same compound, in the data set with caspase-3, the “BAX expression and caspase-3 activity” value is “dose-dependently increased”.
